The values below come from ChEMBL document CHEMBL5505952, “Targeting SARS-CoV-2 entry processes: The promising potential and future of host-targeted small-molecule inhibitors” (Eur J Med Chem, 2024).

In assay [1] the target is Procathepsin L (Homo sapiens, UniProt P07711). Description: Inhibition of human Cathepsin L using Cbz-Phe-Arg-AMC as substrate measured for 10 mins by fluorescence based analysis.
For assay [2], the system named is SARS-CoV-2. Description: microbe, parasite or virus in culture. The settings on record: Severe acute respiratory syndrome coronavirus 2, Huh-7.
Assay [3] has as its system SARS-CoV-2. Description: microbe, parasite or virus in culture. The settings on record: Severe acute respiratory syndrome coronavirus 2, B.1, VeroE6/TMPRSS2, 48 h.
The subject of assay [4] is SARS-CoV-2. Description: microbe, parasite or virus in culture. The settings on record: Severe acute respiratory syndrome coronavirus 2, A549-ACE2.
Assay [5] relates to Ebolavirus. Description: Antiviral activity against Ebola virus infected in human HeLa cells assessed as reduction in viral cytopathic effect. It is filed as functional, organism-based. The settings on record: Orthoebolavirus. In general terms: Damage to the host cells serves as the signal in cytopathic effect assays.
In assay [6] the test system is Dengue virus. In kind it is functional, organism-based. The settings on record: Huh-7, 48 h.
Assay [7] concerns SARS-CoV-2. In kind it is functional, organism-based. The note with it: Severe acute respiratory syndrome coronavirus 2, Vero C1008.

Chain of Procathepsin L (P07711 whole entry): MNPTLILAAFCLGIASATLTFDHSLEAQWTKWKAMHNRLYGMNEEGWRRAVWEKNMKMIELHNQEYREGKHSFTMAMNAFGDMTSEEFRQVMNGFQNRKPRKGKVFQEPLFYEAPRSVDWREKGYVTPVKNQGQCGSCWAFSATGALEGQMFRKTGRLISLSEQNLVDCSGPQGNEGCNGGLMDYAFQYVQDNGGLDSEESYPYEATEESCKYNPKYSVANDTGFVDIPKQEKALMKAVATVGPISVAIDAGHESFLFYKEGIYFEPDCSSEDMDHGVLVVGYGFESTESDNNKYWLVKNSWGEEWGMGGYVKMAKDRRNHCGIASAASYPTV

For the compound `CCCCCCCCCC(=O)N[C@@H](Cc1c[nH]c2ccccc12)C(=O)N[C@H](CC(N)=O)C(=O)N[C@@H](CC(=O)O)C(=O)N[C@@H]1C(=O)NCC(=O)N[C@@H](CCCN)C(=O)N[C@@H](CC(=O)O)C(=O)N[C@H](C)C(=O)N[C@@H](CC(=O)O)C(=O)NCC(=O)N[C@H](CO)C(=O)N[C@@H]([C@H](C)CC(=O)O)C(=O)N[C@@H](CC(=O)c2ccccc2N)C(=O)O[C@@H]1C`, in assay [1], the midpoint of inhibition, the IC50, lay at 7.87 µM. The results for the EC50 in assay [2], in assay [3] and in assay [4] were 207 µM, 226 µM and 98.8 µM, respectively.
For the compound `N#Cc1ccc(-c2cnc3[nH]cc(NC(=O)c4cccnc4)c3c2)cc1`, the concentration for a half-maximal effect (EC50) is above 10 µM in assay [5] and 8 µM in assay [6].
For `CC(CN(C)C)CN1c2ccccc2Sc2ccccc21` (configuration not stated) [METHYLPROMAZINE], the midpoint of the response in assay [7], the EC50, lay at 2420 nM.

As usually defined, the IC50 is the point on the concentration scale where inhibition reaches its midpoint. A low value points to inhibition by little substance. As a reminder, the EC50 is the concentration giving half of the maximal effect.
